Experimental findings from patent publication US10526327B2, “Histone demethylase inhibitors” (CELGENE QUANTICEL RESEARCH, INC., priority 2013, dated 2020) are described below.

One assay deals with KDM5A/B. Nature of the assay: In vitro cell-based assay: immuno-blot quantification of tri-methyl H3K4 in ZR-75-1 breast cancer cells. Particulars: 72 hours, tri-methyl H3K4 level relative to GAPDH, percent of DMSO, read-out: Cellular IC50. The source says: An assay to measure the degree of cellular inhibition of KDM5A and 5B was developed. This quantitative immuno-blotting assay measures the amount tri-methylated histone H3 at amino acid Lysine number 4, a specific substrate […] of the direct enzymatic activity of the histone demethylases KDM5A and KDM5B from extracts of the ZR-75-1 breast cancer cell line.
This assay is a fluorometric immunoassay for the quantification of tri-methyl H3K4 extracted from cells treated with test compound and is used as a measure of the cellular inhibition of KDM5A/B.
ZR-75-1 (PTEN null, ER+) breast cancer cells numbering 50,000 (ATCC) were seeded into each well of a 96-well tissue culture treated plate and then exposed to an 11 point dilution of test compound with final concentration ranges of test compound ranging from 1250 μM to 10 nM. Cells were left in the presence of test compound for 72 hours. Extracts were prepared containing all of the cellular histone material using detergent based lysis and sonication methods. These lysates were subsequently normalized for total protein content using a colorimetric bicinchonic acid assay (MicroBCA Pierce/Thermo Scientific). Normalized cell extracts were then subjected to typical immuno-blotting procedures using NuPage reagents (Life Technologies). Electrophoretically separated histones were then transferred and immobilized using polyvinylidene difluoride membrane (Immobilon-FL Millipore). The amount of tri-methylated lysine 4 of histone H3 was detected using an antibody specific to the tri-methylated state (Cell Signaling Technologies) and quantified on an infrared imager using a densitometry software package (Odyssey CLx, Image Studio, Li-Cor). This background subtracted densitometry value was reported as a ration of the GAPDH amount for that sample and then calculated as a percent of the DMSO treated sample. The software package XL-fit (IDBS) was then used to calculate a relative IC50 value for the dilution series of a given test compound according to the equation: fit=(D+((Vmax*(x^n))/((x^n)+(Km^n)))).
For `N#CCC(=O)N1CC[C@@H](n2cc(Oc3nc(O)c4ccncc4n3)cn2)C1` [Example 130, 3-[(3R)-3-[4-({4-hydroxypyrido[3,4-d]pyrimidin-2-yl}oxy)-1H-pyrazol-1-yl]pyrrolidin-1-yl]-3-oxopropanenitrile], the IC50 is above 10000 nM.

Take `CC(=O)N1CCC[C@H](n2cc(Oc3nc(O)c4ccncc4n3)cn2)C1` [Example 164, 1-[(3S)-3-[4-({4-hydroxypyrido[3,4-d]pyrimidin-2-yl}oxy)-1H-pyrazol-1-yl]piperidin-1-yl]ethan-1-one]: the IC50 lay in the range of 1000 to 10000 nM.

For `Oc1nc(Oc2cnn(Cc3ccccc3Cl)c2)nc2cnccc12` [Example 121, 2-({1-[(2-chlorophenyl)methyl]-1H-pyrazol-4-yl}oxy)pyrido[3,4-d]pyrimidin-4-ol], the IC50 was in the range of 1000 to 10000 nM.

The next assay deals with T1, Jarid1B (Homo sapiens, UniProt Q9UGL1).
T1 construct: purchased BPS Bioscience or custom made by MolecularThroughput 50121
T1 sequence (Q9UGL1 2-751): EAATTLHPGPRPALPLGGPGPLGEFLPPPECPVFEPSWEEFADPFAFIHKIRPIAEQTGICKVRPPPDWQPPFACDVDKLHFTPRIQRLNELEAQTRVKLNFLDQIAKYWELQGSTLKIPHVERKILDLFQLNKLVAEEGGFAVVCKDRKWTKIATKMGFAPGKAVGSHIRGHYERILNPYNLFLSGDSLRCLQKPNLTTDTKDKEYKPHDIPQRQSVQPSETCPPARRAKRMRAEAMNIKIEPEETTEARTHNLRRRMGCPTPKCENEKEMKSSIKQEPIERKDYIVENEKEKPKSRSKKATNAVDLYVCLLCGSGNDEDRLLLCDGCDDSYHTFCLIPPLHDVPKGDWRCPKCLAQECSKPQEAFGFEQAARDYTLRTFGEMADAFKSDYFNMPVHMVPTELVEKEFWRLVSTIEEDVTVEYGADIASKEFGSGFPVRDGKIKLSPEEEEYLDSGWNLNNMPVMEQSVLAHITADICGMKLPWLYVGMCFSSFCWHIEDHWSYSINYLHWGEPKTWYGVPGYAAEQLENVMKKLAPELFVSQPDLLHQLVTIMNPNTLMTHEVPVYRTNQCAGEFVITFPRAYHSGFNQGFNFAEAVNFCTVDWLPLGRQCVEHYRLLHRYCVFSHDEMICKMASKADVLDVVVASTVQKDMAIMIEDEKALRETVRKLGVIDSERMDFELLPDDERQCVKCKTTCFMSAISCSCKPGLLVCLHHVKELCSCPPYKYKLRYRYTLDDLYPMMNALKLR
Nature of the assay: Jarid1B in vitro enzyme inhibition assay (TR-FRET). The class given is biochemical.
Settings: not given
The essentials:
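Jarid1B (AA 2-751, baculovirus-expressed) at 0.8 nM with 300 nM biotin-H3K4me3 peptide and 2 μM α-ketoglutarate in HEPES pH 7.3 with ascorbate and Fe(II), 30 min at room temperature. Stopped with EDTA; H3K4me1-2 product detected by TR-FRET (665/615 ratio) and IC50 fitted from 11-point dilutions.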
A general note: TR-FRET usually uses a lanthanide donor and a delayed reading to cut background.
As to `N#CCC(=O)N1CC[C@@H](n2cc(Oc3nc(O)c4ccncc4n3)cn2)C1` [Example 130, 3-[(3R)-3-[4-({4-hydroxypyrido[3,4-d]pyrimidin-2-yl}oxy)-1H-pyrazol-1-yl]pyrrolidin-1-yl]-3-oxopropanenitrile], the IC50 is at most 100 nM.

The compound `Oc1nc(OCc2cccc(Cl)c2Cl)nc2cnccc12` [Example 173, 2-[(2,3-dichlorophenyl)methoxy]pyrido[3,4-d]pyrimidin-4-ol] had an IC50 of 1000 to 10000 nM.

Compound `CCC(C)COc1nc(O)c2ccncc2n1` (stereo not shown) [Example 16, 2-(2-methylbutoxy)pyrido[3,4-d]pyrimidin-4-ol] registered an IC50 of 100 to 1000 nM.

In the case of `CC(=O)N1CCC[C@H](n2cc(Oc3nc(O)c4ccncc4n3)cn2)C1` [Example 164, 1-[(3S)-3-[4-({4-hydroxypyrido[3,4-d]pyrimidin-2-yl}oxy)-1H-pyrazol-1-yl]piperidin-1-yl]ethan-1-one], the IC50 is at most 100 nM.

`Oc1nc(Oc2cnn(Cc3ccccc3Cl)c2)nc2cnccc12` [Example 121, 2-({1-[(2-chlorophenyl)methyl]-1H-pyrazol-4-yl}oxy)pyrido[3,4-d]pyrimidin-4-ol] had an IC50 of at most 100 nM.

Consider `Oc1nc(Oc2cnn([C@H]3CCCNC3)c2)nc2cnccc12` [Example 160, 2-({1-[(3S)-piperidin-3-yl]-1H-pyrazol-4-yl}oxy)pyrido[3,4-d]pyrimidin-4-ol], for which the IC50 was at most 100 nM.

In the case of `Oc1nc(Oc2cnn([C@@H]3CCCNC3)c2)nc2cnccc12` [Example 149, 2-({1-[(3R)-piperidin-3-yl]-1H-pyrazol-4-yl}oxy)pyrido[3,4-d]pyrimidin-4-ol], the IC50 was at most 100 nM.

`COCCOc1nc(O)c2ccncc2n1` [Example 22, 2-(2-methoxyethoxy)pyrido[3,4-d]pyrimidin-4-ol] displayed an IC50 of 100 to 1000 nM.

In turn, `Cn1cnc(-c2nccc3c(O)nc(O[C@@H](c4ccccc4)C(F)(F)F)nc23)c1` [Example 109, 8-(1-methyl-1H-imidazol-4-yl)-2-[(1S)-2,2,2-trifluoro-1-phenylethoxy]pyrido[3,4-d]pyrimidin-4-ol] displayed an IC50 of 1000 to 10000 nM.

Take `Cn1cnc(-c2nccc3c(O)nc(O[C@H](c4ccccc4)C(F)(F)F)nc23)c1` [Example 108, 8-(1-methyl-1H-imidazol-4-yl)-2-[(1R)-2,2,2-trifluoro-1-phenylethoxy]pyrido[3,4-d]pyrimidin-4-ol]: the IC50 is 1000 to 10000 nM.

The compound `CC(Cc1ccccc1)Oc1nc(O)c2ccncc2n1` (stereo not shown) [Example 19, 2-(1-phenylpropan-2-yloxy)pyrido[3,4-d]pyrimidin-4-ol] displayed an IC50 of 1000 to 10000 nM.

Turning to `Oc1nc(OC(c2ccccc2)C(F)(F)F)nc2cnccc12` (stereo not shown) [Example 176, 2-(2,2,2-trifluoro-1-phenylethoxy)pyrido[3,4-d]pyrimidin-4-ol], the IC50 was 100 to 1000 nM.

Consider `CC(COc1nc(O)c2ccncc2n1)c1ccccc1` (stereo not shown) [Example 17, 2-(2-phenylpropoxy)pyrido[3,4-d]pyrimidin-4-ol], for which the IC50 was 100 to 1000 nM.

For the compound `CN(C)CCCOc1nc(O)c2ccncc2n1` [Example 21, 2-[3-(dimethylamino)propoxy]pyrido[3,4-d]pyrimidin-4-ol], the IC50 is 1000 to 10000 nM.

In turn, `Oc1nc(Oc2cnn(C(c3ccccc3)C3CC3)c2)nc2cnccc12` (stereo not shown) [Example 116, 2-({1-[cyclopropyl(phenyl)methyl]-1H-pyrazol-4-yl}oxy)pyrido[3,4-d]pyrimidin-4-ol] gave an IC50 of at most 100 nM.

Regarding `Oc1nc(Oc2ccc(Cl)c(Cl)c2)nc2cnccc12` [Example 114, 2-(3,4-dichlorophenoxy)pyrido[3,4-d]pyrimidin-4-ol], the IC50 was at most 100 nM.

In turn, `CCC(Oc1nc(O)c2ccnc(-c3cn(C)cn3)c2n1)C(F)(F)F` (stereo not shown) [Example 110, 8-(1-methyl-1H-imidazol-4-yl)-2-[(1,1,1-trifluorobutan-2-yl)oxy]pyrido[3,4-d]pyrimidin-4-ol] returned an IC50 of 100 to 1000 nM.

`O=S(=O)(c1ccccc1)N1CCC[C@@H](n2cc(Oc3nc(O)c4ccncc4n3)cn2)C1` [Example 152, 2-({1-[(3R)-1-(benzenesulfonyl)piperidin-3-yl]-1H-pyrazol-4-yl}oxy)pyrido[3,4-d]pyrimidin-4-ol] returned an IC50 of at most 100 nM.

In the case of `CNCC(=O)N1CC[C@H](n2cc(Oc3nc(O)c4ccncc4n3)cn2)C1` [Example 144, 1-[(3S)-3-[4-({4-hydroxypyrido[3,4-d]pyrimidin-2-yl}oxy)-1H-pyrazol-1-yl]pyrrolidin-1-yl]-2-(methylamino)ethan-1-one], the IC50 was at most 100 nM.

For the compound `Oc1nc(OCc2c(Cl)cccc2Cl)nc2cnccc12` [Example 172, 2-[(2,6-dichlorophenyl)methoxy]pyrido[3,4-d]pyrimidin-4-ol], the IC50 was 1000 to 10000 nM.

On to `Oc1nc(OCCc2ccc(Cl)cc2)nc2cnccc12` [Example 174, 2-[2-(4-chlorophenyl)ethoxy]pyrido[3,4-d]pyrimidin-4-ol], for which the IC50 was at most 100 nM.

Compound `Oc1nc(OCc2ccc(C(F)(F)F)cc2)nc2cnccc12` [Example 170, 2-{[4-(trifluoromethyl)phenyl]methoxy}pyrido[3,4-d]pyrimidin-4-ol] gave an IC50 of 1000 to 10000 nM.

Compound `Oc1nc(Oc2cnn(C3CCCN(c4ccc(F)cc4)C3)c2)nc2cnccc12` (stereo in doubt) [Example 169, 2-({1-[(3R)-1-(4-fluorophenyl)piperidin-3-yl]-1H-pyrazol-4-yl}oxy)pyrido[3,4-d]pyrimidin-4-ol] yielded an IC50 of at most 100 nM.

As for `Oc1nc(OCc2ccccc2Cl)nc2cnccc12` [Example 171, 2-[(2-chlorophenyl)methoxy]pyrido[3,4-d]pyrimidin-4-ol], the IC50 is 100 to 1000 nM.

In turn, `Oc1nc(Oc2cnn(C3CCN(Cc4ccccc4)CC3)c2)nc2cnccc12` [Example 123, 2-{[1-(1-benzylpiperidin-4-yl)-1H-pyrazol-4-yl]oxy}pyrido[3,4-d]pyrimidin-4-ol] registered an IC50 of at most 100 nM.

Compound `Cn1cnc(-c2nccc3c(O)nc(OCc4ccc(C(F)(F)F)cc4)nc23)c1` [Example 111, 8-(1-methyl-1H-imidazol-4-yl)-2-{[4-(trifluoromethyl)phenyl]methoxy}pyrido[3,4-d]pyrimidin-4-ol] yielded an IC50 of 100 to 1000 nM.

As to `O=C(C1CCNCC1)N1CC[C@H](n2cc(Oc3nc(O)c4ccncc4n3)cn2)C1` [Example 143, 2-({1-[(3S)-1-(piperidine-4-carbonyl)pyrrolidin-3-yl]-1H-pyrazol-4-yl}oxy)pyrido[3,4-d]pyrimidin-4-ol], the IC50 is at most 100 nM.

`Oc1nc(OCCc2ccc(Cl)c(Cl)c2)nc2cnccc12` [Example 175, 2-[2-(3,4-dichlorophenyl)ethoxy]pyrido[3,4-d]pyrimidin-4-ol] gave an IC50 of 1000 to 10000 nM.

Turning to `Cn1cnc(-c2nccc3c(O)nc(OCc4ccc(Cl)cc4)nc23)c1` [Example 112, 2-[(4-chlorophenyl)methoxy]-8-(1-methyl-1H-imidazol-4-yl)pyrido[3,4-d]pyrimidin-4-ol], the IC50 is at most 100 nM.

For `CC(C)COc1nc(O)c2ccncc2n1` [Example 14, 2-(2-methylpropoxy)pyrido[3,4-d]pyrimidin-4-ol], the IC50 is 100 to 1000 nM.

In the case of `Cn1cnc(-c2nccc3c(O)nc(OCc4ccccc4C(F)(F)F)nc23)c1` [Example 107, 8-(1-methyl-1H-imidazol-4-yl)-2-{[2-(trifluoromethyl)phenyl]methoxy}pyrido[3,4-d]pyrimidin-4-ol], the IC50 was at most 100 nM.

A word on the IC50: it is the point on the concentration scale where inhibition reaches its midpoint.
